Data: ChEMBL document CHEMBL5634130, “Exploring the structural-activity relationship of hexahydropyrazino[1,2-d]pyrido[3,2-b][1,4]oxazine derivatives as potent and orally-bioavailable PARP7 inhibitors” (Eur J Med Chem, 2023)
Blank lines part the entries; values can stand above or below the compound they belong to. Activity calls are given as the source filed them. The calls are words filed in the database; no cut-off is given here.

Legend:
[1] = biological target: T1, Protein mono-ADP-ribosyltransferase TIPARP (Homo sapiens, UniProt Q7Z3E1); test: Inhibition of PARP7 (unknown origin) using histone as substrate incubated for 1 hr by chemiluminescence assay
T1 sequence (Q7Z3E1 whole entry): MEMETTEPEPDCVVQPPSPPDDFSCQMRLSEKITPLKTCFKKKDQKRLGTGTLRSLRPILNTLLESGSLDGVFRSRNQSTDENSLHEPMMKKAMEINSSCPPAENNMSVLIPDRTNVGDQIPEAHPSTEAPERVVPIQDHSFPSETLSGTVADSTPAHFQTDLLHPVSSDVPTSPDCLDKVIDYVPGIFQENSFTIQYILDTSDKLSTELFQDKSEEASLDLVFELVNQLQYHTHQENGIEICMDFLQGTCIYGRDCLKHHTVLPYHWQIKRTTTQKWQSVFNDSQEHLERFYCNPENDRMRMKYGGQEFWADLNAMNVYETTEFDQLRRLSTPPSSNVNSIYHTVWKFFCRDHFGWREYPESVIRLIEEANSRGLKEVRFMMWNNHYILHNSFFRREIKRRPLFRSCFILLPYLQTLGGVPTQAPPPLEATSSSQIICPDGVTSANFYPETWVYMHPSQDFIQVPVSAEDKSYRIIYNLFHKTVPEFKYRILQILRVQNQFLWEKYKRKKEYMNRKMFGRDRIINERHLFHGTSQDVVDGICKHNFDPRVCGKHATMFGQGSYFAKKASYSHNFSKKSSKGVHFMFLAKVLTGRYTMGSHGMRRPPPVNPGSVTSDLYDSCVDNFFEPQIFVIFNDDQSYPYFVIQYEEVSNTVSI

NCI-H1373 [2] = test: Antiproliferative activity against human NCI-H1373 cells assessed as inhibition of cell viability incubated for 4 days by luminescence based assay; conditions: NCI-H1373, 96 h
[3] = Tmax in fasted ICR mouse at 10 mg/kg, po measured for 24 hrs by LC-MS analysis; assay type: ADME, organism-based; conditions: in vivo
RAW264.7 = test: Inhibition of PARP7 in mouse RAW264.7 cells assessed as increase in IFN-beta level incubated for 24 hrs by ELISA; assay type: cell-based
[4] = Clearance in fasted ICR mouse at 2 mg/kg, iv measured for 24 hrs by LC-MS analysis; assay type: ADME, organism-based; conditions: in vivo
[5] = Cmax in fasted ICR mouse at 10 mg/kg, po measured for 24 hrs by LC-MS analysis; assay type: ADME, organism-based; conditions: in vivo
[6] = AUC in fasted ICR mouse at 10 mg/kg, po measured for 24 hrs by LC-MS analysis; assay type: ADME, organism-based; conditions: in vivo
NCI-H1373 [7] = test: Antitumor activity against human NCI-H1373 cells xenografted in […] SCID mouse model assessed as tumor growth inhibition at 30 mg/kg, po administered everyday measured after 21 days relative to control; assay type: functional; conditions: NCI-H1373, 504 h, time 21 day, read-out: TGI
[8] = AUC in fasted ICR mouse at 2 mg/kg, iv measured for 24 hrs by LC-MS analysis; assay type: ADME, organism-based; conditions: in vivo
[9] = Oral bioavailability in fasted ICR mouse at 10 mg/kg measured for 24 hrs by LC-MS analysis; assay type: ADME, organism-based; conditions: in vivo
[10] = Toxicity in […] SCID mouse model xenografted with human NCI-H1373 cells assessed as animal death at 30 mg/kg, po measured for 21 days; assay type: organism-based; conditions: in vivo, 504 h, time 21 day
[11] = Volume of distribution at steady state in fasted ICR mouse at 2 mg/kg, iv measured for 24 hrs by LC-MS analysis; assay type: ADME, organism-based; conditions: in vivo, read-out: Vdss
[12] = Half life in fasted ICR mouse at 2 mg/kg, iv measured for 24 hrs by LC-MS analysis; assay type: ADME, organism-based; conditions: in vivo
[13] = Toxicity in […] SCID mouse model xenografted with human NCI-H1373 cells assessed as body weight loss at 30 mg/kg, po measured for 21 days; assay type: organism-based; conditions: in vivo, 504 h, time 21 day
MDA-MB-436 = test: Antiproliferative activity against human MDA-MB-436 cells assessed as inhibition of cell viability at 0.1 uM incubated for 7 days by luminescence based assay; assay type: functional; conditions: time 7.0 day
[14] = Half life in fasted ICR mouse at 10 mg/kg, po measured for 24 hrs by LC-MS analysis; assay type: ADME, organism-based; conditions: in vivo

SMILES: O=C(CCOC1CC(Nc2cn[nH]c(=O)c2C(F)(F)F)C1)N1CCN2c3ncc(C(F)(F)F)cc3OC[C@@H]2C1 (some centres undefined)
IC50 [1]: 0.063 µM | IC50 (NCI-H1373 [2]): 0.398 µM

SMILES: C[C@@H](COc1cnc(N2CCN3c4ncc(C(F)(F)F)cc4OC[C@@H]3C2)nc1)Nc1cn[nH]c(=O)c1C(F)(F)F
IC50 (NCI-H1373 [2]): 1.95 µM

SMILES: C[C@@H](CN1CCC(C(=O)N2CCN3c4ncc(C(F)(F)F)cc4OC[C@@H]3C2)C1)Nc1cn[nH]c(=O)c1C(F)(F)F (some centres undefined)
IC50 (NCI-H1373 [2]): 0.908 µM

SMILES: CC(COCCC(=O)N1CCN2c3ncc(C(F)(F)F)cc3OC[C@@H]2C1)Nc1cn[nH]c(=O)c1C(F)(F)F (mixture of isomers)
IC50 [1]: 0.0094 µM | IC50 (NCI-H1373 [2]): 0.156 µM

SMILES: C[C@@H](COCCC(=O)N1CCN2c3ncc(C(F)(F)F)cc3OC[C@@H]2C1)Oc1cn[nH]c(=O)c1C(F)(F)F
Tmax [3]: 15 min | inhibition (RAW264.7): Active | clearance [4]: 3.04 L/h/kg | Cmax [5]: 1.84 µg/mL | AUC [6]: 1.835 µg·h/mL | inhibition in vivo at 30 mg/kg (NCI-H1373 [7]): 62.4% | AUC at 24 h [8]: 0.682 µg·h/mL | bioavailability [9]: 53.9% | Activity [10]: Non-Toxic | Vd [11]: 0.668 L/kg | half-life [12]: 102 min | Activity [13]: Non-Toxic | Activity (MDA-MB-436): inactive | IC50 [1]: 0.00175 µM | IC50 (NCI-H1373 [2]): 0.015 µM | t1/2 [14]: 264 min

SMILES: C[C@@H](CN1CC(C(=O)N2CCN3c4ncc(C(F)(F)F)cc4OC[C@@H]3C2)C1)Nc1cn[nH]c(=O)c1C(F)(F)F
IC50 (NCI-H1373 [2]): > 3 µM

SMILES: C[C@@H](COCCC(=O)N1CCN2c3ncc(C(F)(F)F)cc3OC[C@H]2C1)Nc1cn[nH]c(=O)c1C(F)(F)F
IC50 [1]: 0.0033 µM | IC50 (NCI-H1373 [2]): 0.085 µM

SMILES: C[C@@H](COCCC(=O)N1CCN2c3ncc(C(F)(F)F)cc3OCC2C1)Nc1cn[nH]c(=O)c1C(F)(F)F (mixture of isomers)
IC50 [1]: 0.0021 µM | IC50 (NCI-H1373 [2]): 0.088 µM

SMILES: CC(COCCC(=O)N1CCN2c3ncc(C(F)(F)F)cc3OCC2C1)Nc1cn[nH]c(=O)c1C(F)(F)F (racemic)
IC50 [1]: 0.0103 µM | IC50 (NCI-H1373 [2]): 0.175 µM

SMILES: CC(COC[C@H](C)Nc1cn[nH]c(=O)c1C(F)(F)F)C(=O)N1CCN2c3ncc(C(F)(F)F)cc3OC[C@@H]2C1 (some centres undefined)
IC50 (NCI-H1373 [2]): 0.973 µM

SMILES: CC(COCCC(=O)N1CCN2c3ncc(C(F)(F)F)cc3OC[C@H]2C1)Nc1cn[nH]c(=O)c1C(F)(F)F (mixture of isomers)
IC50 [1]: 0.0128 µM | IC50 (NCI-H1373 [2]): 0.18 µM

SMILES: C[C@@H](COCCC(=O)N1CCN2c3ncc(C(F)(F)F)cc3OC[C@@H]2C1)Nc1cn[nH]c(=O)c1C(F)(F)F
Tmax [3]: 15 min | clearance [4]: 3.66 L/h/kg | Cmax [5]: 0.408 µg/mL | AUC [6]: 0.306 µg·h/mL | AUC at 24 h [8]: 0.274 µg·h/mL | bioavailability [9]: 22.3% | Vd [11]: 0.104 L/kg | half-life [12]: 30 min | IC50 [1]: 0.00186 µM | IC50 (NCI-H1373 [2]): 0.077 µM | t1/2 [14]: 120 min

The next lines start with results.

IC50 (NCI-H1373 [2]): 0.954 µM
SMILES: Cc1cnc2c(c1)OCC1CN(C(=O)CCOC[C@H](C)Nc3cn[nH]c(=O)c3C(F)(F)F)CCN21 (some centres undefined)

IC50 [1]: 0.00071 µM | IC50 (NCI-H1373 [2]): 0.006 µM
SMILES: O=C(CCOCC1CCN1c1cn[nH]c(=O)c1C(F)(F)F)N1CCN2c3ncc(C(F)(F)F)cc3OC[C@@H]2C1 (some centres undefined)

Tmax [3]: 15 min | clearance [4]: 2.96 L/h/kg | Cmax [5]: 0.4 µg/mL | AUC [6]: 0.544 µg·h/mL | AUC at 24 h [8]: 0.421 µg·h/mL | bioavailability [9]: 25.8% | Vd [11]: 0.638 L/kg | half-life [12]: 36 min | IC50 [1]: 0.00066 µM | IC50 (NCI-H1373 [2]): 0.0148 µM | t1/2 [14]: 126 min
SMILES: O=C(CCOC[C@@H]1CCN1c1cn[nH]c(=O)c1C(F)(F)F)N1CCN2c3ncc(Cl)cc3OC[C@@H]2C1
inhibition (RAW264.7): Active | Activity (MDA-MB-436): inactive

IC50 (NCI-H1373 [2]): 0.106 µM
SMILES: C[C@@H](COCCC(=O)N1CCN2c3ncc(Cl)cc3OCC2C1)Nc1cn[nH]c(=O)c1C(F)(F)F (some centres undefined)

IC50 (NCI-H1373 [2]): 0.694 µM
SMILES: C[C@@H](COCCC(=O)N1CCN2c3ncc(F)cc3OCC2C1)Nc1cn[nH]c(=O)c1C(F)(F)F (some centres undefined)

IC50 (NCI-H1373 [2]): 0.255 µM
SMILES: C[C@@H](COCCC(=O)N1CCN2c3ncc(C#N)cc3OCC2C1)Nc1cn[nH]c(=O)c1C(F)(F)F (some centres undefined)

IC50 [1]: 0.0138 µM | IC50 (NCI-H1373 [2]): 0.31 µM
SMILES: O=C(CCOC[C@@H]1CCCN1c1cn[nH]c(=O)c1C(F)(F)F)N1CCN2c3ncc(C(F)(F)F)cc3OC[C@@H]2C1
